Columns and labels:
cIAP2-BIR3 = target: T1, cIAP2-BIR3 (Homo sapiens, UniProt Q13489); assay: cIAP2-BIR3 fluorescence polarization binding assay; details: FP, probe AbuRPFK-5FAM (SM5F) 5 nM, cIAP2-BIR3 80 nM, 60 min at 25° C.
T1 construct: cIAP2-BIR3; purchased Reaction Biology APT-11-372
Description: (§1) IAPs are one main cause of cancer development and may result from overexpression of anti-apoptotic proteins. This protocol establishes three binding assays for […] Bir3 domain, cIAP1 and cIAP2 using FP (fluorescence polariation) technology. The fluorescence probe used is a synthetic peptide conjugated to 5-carboxyfluorescein (AbuRPFK-5FAM). The fluorescence polarization value (mP) was detected by Envision, which was used to reflect the binding degree of protein and fluorescent marker.
(§2) • a. Prepare 100 times of the final cpd concentration in appropriate tube and transfer 5 uL cpd to 45 μL 1× reaction buffer with 10% DMSO • b. The final reference cpd concentration is 10000, 3333.3, 1111.1, 370.4, 123.4, 41.2, 13.7, 4.57, 1.52, 0.51, 0.17 and 0 nM. So the 100 times of the concentration is 1000, 333.3, 111.1, 37.04, 12.34, 4.12, […], 0.15, 0.05, 0.017 and 0 μM. The final test cpds concentration is 3333.3, 1111.1, 370.4, 123.4, 41.2, 13.7, 4.57, 1.52, 0.51, 0.17, 0.057 and 0 nM. So the 100 times of the concentration is 333.3, 111.1, 37.04, 12.34, 4.12, […], 0.15, 0.05, 0.017, 0.0057 and […] • c. Add 8 μL/well each dose enzyme to 384 wen microplate (ProxiPlate-384 F Plus, 6008260) using multichannel pipette, prepared in Table 3. • d. Centrifuge at 1000 rpm • e. Add 2 μL/well cpd to 384 well microplate (ProxiPlate-384 F Plus, 6008260) using multichannel pipette, prepared in step a). • f. Centrifuge at 1000 rpm RT, 15 min. • g Start the assay by adding 10 uL/well substrate (prepared in Table 4) to the same 384 wen microplate using multichannel pipette. • h. Centrifuge at 1000 rpm. • i. Cover the assay plate and incubate for 60 min at 25° C. • j. Read on Envision 2104 for mP and plot the IC50s with mP values. • k. Data analysis: IC50s were determined based on a non-linear regression analysis of data collected.

cIAP1-BIR3 = target: T2, cIAP1-BIR3 (Homo sapiens, UniProt Q13490); assay: cIAP1-BIR3 fluorescence polarization binding assay; details: FP, probe AbuRPFK-5FAM (SM5F) 5 nM, cIAP1-BIR3 15 nM, 60 min at 25° C.
T2 construct: cIAP1-BIR3; purchased Reaction Biology APT-11-370
T2 sequence (Q13490 253-363 limits assumed): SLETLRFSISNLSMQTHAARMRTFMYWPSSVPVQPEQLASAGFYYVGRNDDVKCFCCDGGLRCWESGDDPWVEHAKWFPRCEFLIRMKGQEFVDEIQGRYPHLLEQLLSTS
Description: as §1, §2

XIAP-BIR3 = target: T3, XIAP-BIR3 (Homo sapiens, UniProt P98170); assay: XIAP-BIR3 fluorescence polarization binding assay; details: FP, probe AbuRPFK-5FAM (SM5F) 5 nM, XIAP-BIR3 40 nM, 60 min at 25° C.
T3 construct: XIAP-BIR3; purchased Reaction Biology APT-11-374
T3 sequence (P98170 241-356 limits assumed): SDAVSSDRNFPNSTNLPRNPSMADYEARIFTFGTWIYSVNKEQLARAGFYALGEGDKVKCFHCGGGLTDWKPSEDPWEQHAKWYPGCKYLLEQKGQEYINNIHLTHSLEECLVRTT
Description: as §1, §2

T1 sequence (Q13489 238-349 limits assumed): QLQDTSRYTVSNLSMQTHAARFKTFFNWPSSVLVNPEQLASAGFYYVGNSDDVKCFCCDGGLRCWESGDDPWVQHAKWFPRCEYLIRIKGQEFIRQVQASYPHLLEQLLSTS

Row | Compound | IC50 (cIAP2-BIR3) | IC50 (cIAP1-BIR3) | IC50 (XIAP-BIR3)
1 | CN[C@@H](C)C(=O)N[C@@H](C)C(=O)N1CCC[C@H]1C(=O)N[C@@H]1CCCc2c(-c3cccc(-c4cccc5c4CCC[C@H]5NC(=O)[C@@H]4CCCN4C(=O)[C@H](C)NC(=O)[C@H](C)NC)c3)cccc21 [Compound III-C, (2S)-1-[(2S)-2-[(2S)-2-(methylamino)propanamido]propanoyl]-N-[(1R)-5-[3-[(5R)-5-[(2S)-1-[(2S)-2-[(2S)-2-(methylamino)propanamido]propanoyl]pyrrolidine-2-amido]-5,6,7,8-tetrahydmnaphthalen-1-yl]phenyl]-1,2,3,4-tetrahydmnaphthalen-1-yl]pyrrolidine-2-carboxamide] | 1 to 10 nM | 1 to 10 nM | 1 to 10 nM
2 | CN[C@@H](C)C(=O)N[C@H](C(=O)N1CCC[C@H]1C(=O)N[C@@H]1CCc2c(-c3cccc4c3CC[C@H]4NC(=O)[C@@H]3CCCN3C(=O)[C@@H](NC(=O)[C@H](C)NC)C3CCCCC3)cccc21)C1CCCCC1 [Compound V, (2S)-1-[(2S)-2-cyclohexyl-2-[(2S)-2-(methylamino)propanamido]acetyl]-N-[(1R,1′R)-1′-[(2S)-1-[(2S)-2-cyclohexyl-2-[(2S)-2-(methylamino)propanamido]acetyl]pyrrolidine-2-amido]-1H,1′H,2H,2′H,3H,3′H-[4,4′-biinden]-1-yl]pyrrolidine-2-carboxamide] | 10 to 100 nM | 1 to 10 nM | 10 to 100 nM
3 | CN[C@@H](C)C(=O)N[C@H](C(=O)N1CCC[C@H]1C(=O)N[C@@H]1CCOc2c(-c3cccc4c3OCC[C@H]4NC(=O)[C@@H]3CCCN3C(=O)[C@@H](NC(=O)[C@H](C)NC)C3CCCC3)cccc21)C1CCCC1 [Compound V-F, (2S)-1-[(2S)-2-cyclopentyl-2-[(2S)-2-(methylamino)propanamido]acetyl]-N-[(4R)-8-[(4R)-4-[(2S)-1-[(2S)-2-cyclopentyl-2-[(2S)-2-(methylamino)propanamido]acetyl]pyrrolidine-2-amido]-3,4-dihydro-2H-1-benzopyran-8-yl]-3,4-dihydro-2H-1-benzopyran-4-yl]pyrrolidine-2-carboxamide] | 10 to 100 nM | 1 to 10 nM | 10 to 100 nM
4 | CN[C@@H](C)C(=O)N[C@H](C(=O)N1CCC[C@H]1C(=O)N[C@@H]1CCCc2cc(OCCOCCOc3ccc4c(c3)CCC[C@H]4NC(=O)[C@@H]3CCCN3C(=O)[C@@H](NC(=O)[C@H](C)NC)C3CCCCC3)ccc21)C1CCCCC1 [Compound II-D, (2S)-1-[(2S)-2-cyclohexyl-2-[(2S)-2-(methylamino)propanamido]acetyl]-N-[(1R)-6-[2-(2-[[(5R)-5-[(2S)-1-1(2S)-2-cyclohexyl-2-[(2S)-2-(methylamino)propanamido]acetyl]pyrrolidine-2-amido]-5,6,7,8-tetrahydronaphthalen-2-yl]oxy]ethoxy)ethoxyl-1,2,3,4-tetrahydronaphthalen-1-yl]pyrrolidine-2-carboxamide Formic Acid] | 10 to 100 nM | 1 to 10 nM | > 1000 nM
5 | CN[C@@H](C)C(=O)N[C@H](C(=O)N1CCC[C@H]1C(=O)N[C@@H]1CCCc2c(OCC#CCOc3cccc4c3CCC[C@H]4NC(=O)[C@@H]3CCCN3C(=O)[C@@H](NC(=O)[C@H](C)NC)C3CCCCC3)cccc21)C1CCCCC1 [Compound IV-B, (S)-1-((S)-2-Cyclohexyl-2-((S)-2-(methylamino)propanamido)acetyl)-N—((R)-5-(4-((R)-5-((S)-1-((S)-2-cyclohexyl-2-((S)-2-(methylamino)propanamido)acetyl)pyrrolidine-2-carboxamido)-5,6,7,8-tetrahydronaphthalen-1-yloxy)but-2-ynyloxy)-1,2,3,4-tetrahydronaphthalen-1-yl)pyrrolidine-2-carboxamide] | 10 to 100 nM | 1 to 10 nM | 10 to 100 nM
6 | CN[C@@H](C)C(=O)N[C@@H](C)C(=O)N1CCC[C@H]1C(=O)N[C@@H]1CCCc2c(-c3cccc4c3CCC[C@H]4NC(=O)[C@@H]3CCCN3C(=O)[C@H](C)NC(=O)[C@H](C)NC)cccc21 [Compound V-H, (2S)-1-[(2S)-2-[(2S)-2-(methylamino)propanamido]propanoyl]-N-[(5R,5′R)-5′-[(2S)-1-[(2S)-2-[(2S)-2-(methylamino)propanamido]propanoyl]pyrrolidine-2-amido]-5H,5′H,6H,6′H,7H,7′H,8H,8′H-[1,1′-binaphthalen]-5-yl]pyrrolidine-2-carboxamide] | 10 to 100 nM | 1 to 10 nM | 100 to 1000 nM
7 | CC[C@H](NC(=O)[C@H](C)NC)C(=O)N1CCC[C@H]1C(=O)N[C@@H]1CCOc2c(-c3cccc4c3OCC[C@H]4NC(=O)[C@@H]3CCCN3C(=O)[C@H](CC)NC(=O)[C@H](C)NC)cccc21 [Compound V-B, (2S)-1-[(2S)-2-[(2S)-2-(methylamino)propanamido]butanoyl]-N-[1(4R)-8-[(4R)-4-[(2S)-1-[(2S)-2-[(2S)-2-(methylamino)propanamido]butanoyl]pyrrolidine-2-amido]-3,4-dihydro-2H-1-benzopyran-8-yl]-3,4-dihydro-2H-1-benzopyran-4-yl]pyrrolidine-2-carboxamide] | 10 to 100 nM | 1 to 10 nM | 10 to 100 nM

Results, then the compound that gave them:

Row | IC50 (cIAP2-BIR3) | IC50 (cIAP1-BIR3) | IC50 (XIAP-BIR3) | Compound
8 | 10 to 100 nM | 1 to 10 nM | 10 to 100 nM | CN[C@@H](C)C(=O)N[C@H](C(=O)N1CCC[C@H]1C(=O)N[C@@H]1CCCc2c(-c3cccc(-c4cccc5c4CCC[C@H]5NC(=O)[C@@H]4CCCN4C(=O)[C@@H](NC(=O)[C@H](C)NC)C4CCCCC4)c3)cccc21)C1CCCCC1 [III-A, (2S)-1-[(2S)-2-Cyclohexyl-2-[(2S)-2-(methylamino)propanamido]acetyl]-N-[(1R)-5-(3-[(5R)-5-[(2S)-1-[(2S)-2-cyclohexyl-2-[(2S)-2-(methylamino)propanamido]acetyl]pyrolidine-2-amido]-5,6,7,8-tetrahydronaphthalen-1-yl]phenyl)-1,2,3,4-tetrahydronaphthalen-1-yl]pyrrolidine-2-carboxamide]
9 | 10 to 100 nM | 1 to 10 nM | 10 to 100 nM | CN[C@@H](C)C(=O)N[C@H](C(=O)N1CCC[C@H]1C(=O)N[C@@H]1CCCc2c(Oc3cccc4c3CCC[C@H]4NC(=O)[C@@H]3CCCN3C(=O)[C@@H](NC(=O)[C@H](C)NC)C3CCOCC3)cccc21)C1CCOCC1 [Compound X-C, (S)-1-((S)-2-((S)-2-(methylamino)propanamido)-2-(tetrahydro-2H-pyran-4-yl)acetyl)-N—((R)-5-(((R)-5-((S)-1-((S)-2-((S)-2-(methylamino)propanamido)-2-(tetrahydro-2H-pyran-4-yl)acetyl)pyrrolidine-2-carboxamido)-5,6,7,8-tetrahydronaphthalen-1-yl)oxy)-1,2,3,4-tetrahydronaphthalen-1-yl)pyrrolidine-2-carboxamide]
10 | 10 to 100 nM | 1 to 10 nM | 10 to 100 nM | CN[C@@H](C)C(=O)N[C@H](C(=O)N1CCC[C@H]1C(=O)N[C@@H]1CCCc2c(Oc3cccc4c3CCC[C@H]4NC(=O)[C@@H]3CCCN3C(=O)[C@@H](NC(=O)[C@H](C)NC)C(C)C)cccc21)C(C)C [Compound X-B, (S)-1-(Methyl-L-alanyl-L-valyl)-N—((R)-5-(((R)-5-((S)-1-(methyl-L-alanyl-L-valyl)pyrrolidine-2-carboxamido)-5,6,7,8-tetrahydronaphthalen-1-yl)oxy)-1,2,3,4-tetrahydronaphthalen-1-yl)pyrrolidine-2-carboxamide]
11 | 1 to 10 nM | 1 to 10 nM | 10 to 100 nM | CC[C@H](NC(=O)[C@H](C)NC)C(=O)N1CCC[C@H]1C(=O)N[C@@H]1CCCc2c(-c3cccc4c3CCC[C@H]4NC(=O)[C@@H]3CCCN3C(=O)[C@H](CC)NC(=O)[C@H](C)NC)cccc21 [V-I, (2S)-1-[(2S)-2-[(2S)-2-(methylamino)propanamido]butanoyl]-N-[1(5R,5′R)-5′-[(2S)-1-[(2S)-2-[(2S)-2-(methylamino)propanamido]butanoyl]pyrrolidine-2-amido]-5H,5′H,6H,6′H,7H,7′H,8H,8′H-[1,1′-binaphthalen]-5-yl]pyrrolidine-2-carboxamide; Bis(Formic Acid)]

— patent US20220220152A1, “BIVALENT ANTAGONISTS OF INHIBITORS OF APOPTOSIS PROTEINS” (Hepagene Therapeutics (HK) Limited, priority 2019, published 2022)
